Measurements: ChEMBL document CHEMBL1221336, “Xanthones with neuraminidase inhibitory activity from the seedcases of Garcinia mangostana” (Bioorg Med Chem, 2010)

Tests used:
Sialidase [1] = biological target: T1, Sialidase (Clostridium perfringens, UniProt P10481); test: Competitive inhibition of Clostridium perfringens neuraminidase by fluorimetry
T1 sequence (P10481 whole entry): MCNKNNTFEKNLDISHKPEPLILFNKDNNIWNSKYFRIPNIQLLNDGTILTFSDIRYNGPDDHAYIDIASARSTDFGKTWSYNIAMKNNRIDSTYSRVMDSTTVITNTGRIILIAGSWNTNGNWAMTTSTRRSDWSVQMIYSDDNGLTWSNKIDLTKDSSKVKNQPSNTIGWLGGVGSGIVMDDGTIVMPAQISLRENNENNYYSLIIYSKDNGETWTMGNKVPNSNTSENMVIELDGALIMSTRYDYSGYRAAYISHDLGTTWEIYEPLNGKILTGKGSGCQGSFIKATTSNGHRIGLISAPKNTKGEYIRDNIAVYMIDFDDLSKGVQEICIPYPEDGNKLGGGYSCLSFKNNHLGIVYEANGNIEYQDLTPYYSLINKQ

Sialidase [2] = biological target: T1, Sialidase; test: Inhibition of Clostridium perfringens neuraminidase by fluorimetry; settings: for Ki: read-out: Ki(app)
[3] = biological target: T2, Sialidase (Clostridium perfringens) (UniProt P10481); test: Inhibition of Clostridium perfringens neuraminidase at 1.56 uM by fluorimetry; settings: TDE = time-dependent effect
T2 sequence (whole entry): T1 sequence (P10481 whole entry)

Compound | Ki (Sialidase [1]) | IC50 (Sialidase [2]) | inhibition [3] | Ki (Sialidase [2])
C=C(C)C1Cc2c(cc3oc4cc(O)c(OC)c(CC=C(C)C)c4c(=O)c3c2O)O1 (stereo unspecified) [MANGOSTENONE F] | 7.6 µM | 24.8 µM |  | 
O=c1c(O)c(-c2ccc(O)c(O)c2)oc2cc(O)cc(O)c12 [QUERCETIN] |  | 9.8 µM |  | 
COc1c(O)cc2oc3cc4c(c(O)c3c(=O)c2c1CC=C(C)C)CC(O)C(C)(C)O4 (stereo unspecified) [MANGOSTANOL] | 6.5 µM | 21.5 µM |  | 
COc1c(O)cc2oc3cc(O)c(CC=C(C)C)c(O)c3c(=O)c2c1CC=C(C)C [MANGOSTIN] | 5.8 µM | 12.2 µM |  | 
CC(C)=CCc1c(O)c(CC=C(C)C)c2oc3c(O)cccc3c(=O)c2c1O [8-DEOXYGARTANIN] | 15.5 µM | 29.2 µM |  | 
COc1cc2oc3cc(O)c(OC)c(CC=C(C)C)c3c(=O)c2c(O)c1CC=C(C)C | 24.9 µM | 60.7 µM |  | 
CC(C)=CCc1c(O)c(CC=C(C)C)c2oc3c(O)ccc(O)c3c(=O)c2c1O [GARTANIN] | 3.6 µM | 2.9 µM | tde | 0.437 µM
C=C(C)C1Cc2c(c(O)cc3oc4cc(O)c(CC=C(C)C)c(O)c4c(=O)c23)O1 (stereo unspecified) [MANGOSTENONE G] | 6.8 µM | 14.6 µM |  | 
CC(C)=CCc1c(O)cc2oc3cc(O)c(O)c(CC=C(C)C)c3c(=O)c2c1O | 0.8 µM | 2.2 µM | tde | 7.41 µM
COc1c(O)cc2oc3cc(O)c(CC=C(C)C)c(O)c3c(=O)c2c1CCC(C)(C)O [GARCINONE D] | 3.3 µM | 5.7 µM |  | 
COc1cc2oc3c(O)cccc3c(=O)c2c(O)c1CC=C(C)C [CUDRAXANTHONE] | 35.2 µM | 65.7 µM |  | 
COc1c(O)cc2oc3cc4c(c(O)c3c(=O)c2c1CC=C(C)C)C=CC(C)(C)O4 [MANGOSTANIN] | 5.9 µM | 20.1 µM |  | 
CC(C)=CCC/C(C)=C/Cc1c(O)cc2oc3c(O)ccc(O)c3c(=O)c2c1O [SMEATHXANTHONE A] | 0.15 µM | 0.27 µM | tde | 0.0447 µM
